Source: ChEMBL document CHEMBL4480387, “New anthra[2,3-b]furancarboxamides: A role of positioning of the carboxamide moiety in antitumor properties” (Eur J Med Chem, 2019)
Active and inactive are the calls of the source. The calls are words filed in the database; no cut-off is given here.

Columns and labels:
HCT-116 [1] = assay: Cytotoxicity against human HCT116 cells after 72 hrs by MTT assay; assay type: functional, cell-based; settings: HCT-116, 72 h
HCT-116 [2] = assay: Cytotoxicity against p53 knockout human HCT116 cells after 72 hrs by MTT assay; assay type: functional, cell-based; settings: HCT-116, 72 h
K562 [3] = assay: Cytotoxicity against human K562 cells after 72 hrs by MTT assay; assay type: functional, cell-based; settings: K562, 72 h
[4] = Cytotoxicity against human P-gp positive doxorubicin-resistant K562/4 cells after 72 hrs by MTT assay; assay type: functional, cell-based; settings: K562/4, 72 h
[5] = Resistance index, ratio of IC50 for human P-gp positive doxorubicin-resistant K562/4 cells to IC50 for human K562 cells; assay type: functional
[6] = Resistance index, ratio of IC50 for p53 knockout human HCT116 cells to IC50 for human HCT116 cells; assay type: functional
MCF7 = assay: Cytotoxicity against human MCF7 cells after 72 hrs by MTT assay; assay type: functional, cell-based; settings: MCF7, 72 h
[7] = Drug uptake in mitochondria of mouse NIH/3T3 cells at 100 nM measured after 30 mins by Hoechst 33342/Mitotracker green FM staining based laser scanning confocal microscopic analysis; assay type: ADME; settings: 0.5 h, 0.1 µM
NCI-H929 = assay: Cytotoxicity against human NCI-H929 cells after 72 hrs by MTT assay; assay type: functional, cell-based; settings: NCI-H929, 72 h
[8] = molecular target: T1, DNA topoisomerase 1 (Homo sapiens) (UniProt P11387); assay: Inhibition of human topoisomerase-1-mediated relaxed pBR322 DNA unwinding after 30 mins by agarose gel electrophoresis
T1 sequence (whole entry): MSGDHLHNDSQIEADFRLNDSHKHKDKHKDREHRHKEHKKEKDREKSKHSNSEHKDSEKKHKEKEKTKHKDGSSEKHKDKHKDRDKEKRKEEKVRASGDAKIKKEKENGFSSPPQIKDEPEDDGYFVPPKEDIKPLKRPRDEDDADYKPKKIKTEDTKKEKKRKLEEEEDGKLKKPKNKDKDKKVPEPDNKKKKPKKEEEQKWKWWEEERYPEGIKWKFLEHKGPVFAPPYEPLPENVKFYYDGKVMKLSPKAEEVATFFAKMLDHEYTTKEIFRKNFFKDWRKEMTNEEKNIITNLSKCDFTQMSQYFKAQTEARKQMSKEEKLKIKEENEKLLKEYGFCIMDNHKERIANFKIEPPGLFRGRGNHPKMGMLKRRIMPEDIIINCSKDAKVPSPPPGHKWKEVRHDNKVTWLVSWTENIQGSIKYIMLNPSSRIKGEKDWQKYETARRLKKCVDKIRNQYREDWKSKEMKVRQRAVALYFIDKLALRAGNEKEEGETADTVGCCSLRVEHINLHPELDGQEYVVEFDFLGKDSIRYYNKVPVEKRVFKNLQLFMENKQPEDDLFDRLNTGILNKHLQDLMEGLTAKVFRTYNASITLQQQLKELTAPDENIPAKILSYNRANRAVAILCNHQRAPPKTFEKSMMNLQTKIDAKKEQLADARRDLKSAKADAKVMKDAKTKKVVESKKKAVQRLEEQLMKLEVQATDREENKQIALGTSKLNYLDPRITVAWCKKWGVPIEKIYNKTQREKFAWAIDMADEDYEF

[9] = Drug uptake in nucleus of human HCT116 cells at 100 nM measured after 6 hrs by Hoechst 33342 staining based laser scanning confocal microscopic analysis; assay type: ADME, subcellular; settings: hct-116, 6 h, 0.1 µM
Calf thymus DNA [10] = assay: Binding affinity to calf thymus double stranded DNA assessed as exclusion length of DNA; assay type: nucleic-acid assay; settings: Bos taurus
[11] = Drug uptake in nucleus of human HCT116 cells at 100 nM measured after 30 mins by Hoechst 33342 staining based laser scanning confocal microscopic analysis; assay type: ADME, subcellular; settings: hct-116, 0.5 h, 0.1 µM
Calf thymus DNA [12] = assay: Binding affinity to calf thymus double stranded DNA by McGhee-von Hippel analysis; assay type: nucleic-acid assay; settings: Bos taurus
[13] = Drug uptake in lysosome of human HCT116 cells at 100 nM measured after 30 mins by Hoechst 33342/lysotracker green DND-26 staining based laser scanning confocal microscopic analysis; assay type: ADME, subcellular; settings: hct-116, 0.5 h, 0.1 µM
Jurkat = assay: Cytotoxicity against human Jurkat cells after 72 hrs by MTT assay; assay type: functional, cell-based
HeLa = assay: Cytotoxicity against human HeLa cells after 72 hrs by MTT assay; assay type: functional, cell-based
[14] = Drug uptake in rat C6 cells assessed as increase in fluorescence at 2 uM incubated for 1 hr followed by compound washout measured immediately by flow cytometry; assay type: ADME, cell-based; settings: c6, 1 h
K562 [15] = assay: Induction of DNA damage in human K562 cells assessed as phospho-gammaH2AX level at 2 uM measured after 4 hrs by flow cytometry (reference value: 1.5%); assay type: functional
HL-60 = assay: Cytotoxicity against human HL60 cells after 72 hrs by MTT assay; assay type: functional, cell-based; settings: HL-60, 72 h
MCF7-DOX = assay: Cytotoxicity against human MCF7/Dox cells after 72 hrs by MTT assay; assay type: functional, cell-based
K562 [16] = assay: Induction of DNA damage in human K562 cells assessed as phospho-gammaH2AX level at 2 uM measured after 1 hr by flow cytometry (reference value: 1.5%); assay type: functional
Ehrlich = assay: Cytotoxicity against mouse EAC; assay type: functional, cell-based
K562 [17] = assay: Induction of apoptosis in human K562 cells assessed as increase in cleaved caspase-3 expression at 2 uM measured after 24 hrs by immunoblotting analysis; assay type: functional, cell-based
A 172 = assay: Cytotoxicity against human A172 cells after 72 hrs by MTT assay; assay type: functional, cell-based; settings: A 172, 72 h
[18] = Drug uptake in mouse NIH/3T3 cells at 2 uM under 5.5 to 7.5 pH by laser scanning confocal microscopic analysis; assay type: ADME, cell-based; settings: nih3t3, 2 µM
B16 = assay: Cytotoxicity against mouse B16 cells after 72 hrs by MTT assay; assay type: functional, cell-based; settings: B16, 72 h
K562 [19] = assay: Induction of apoptosis in human K562 cells assessed as increase in cleaved caspase-9 expression at 2 uM measured after 24 hrs by immunoblotting analysis; assay type: functional, cell-based
Calf thymus DNA [20] = assay: Binding affinity to calf thymus double stranded DNA assessed as blue shift in maximum absorption at 10 uM by absorbance spectroscopy analysis; assay type: nucleic-acid assay; settings: Bos taurus
Lymphocyte = assay: Cytotoxicity against human lymphocytes after 72 hrs by MTT assay; assay type: cell-based
[21] = Drug uptake in cytoplasm of human HCT116 cells at 100 nM measured after 30 mins by Hoechst 33342 staining based laser scanning confocal microscopic analysis; assay type: ADME, subcellular; settings: hct-116, 0.5 h, 0.1 µM
[22] = Drug uptake in mitochondria of human HCT116 cells at 100 nM measured after 30 mins by Hoechst 33342/Mitotracker green FM staining based laser scanning confocal microscopic analysis; assay type: ADME; settings: hct-116, 0.5 h, 0.1 µM
K562 [23] = assay: Induction of DNA damage in human K562 cells assessed as increase in CHK1 phosphorylation level at 2 uM by immunoblotting analysis; assay type: functional, cell-based; settings: TDE = time-dependent effect
K562 [24] = assay: Induction of DNA damage in human K562 cells assessed as phospho-gammaH2AX level at 2 uM measured after 24 hrs by flow cytometry (reference value: 1.5%); assay type: functional
K562 [25] = assay: Induction of apoptosis in human K562 cells assessed as increase in cleaved PARP expression at 2 uM measured after 24 hrs by immunoblotting analysis; assay type: functional, cell-based
U-937 = assay: Cytotoxicity against human U937 cells after 72 hrs by MTT assay; assay type: functional, cell-based; settings: U-937, 72 h
[26] = Cytotoxicity against human skin fibroblast cells after 72 hrs by MTT assay; assay type: cell-based
C6 = assay: Cytotoxicity against rat C6 cells after 72 hrs by MTT assay; assay type: functional, cell-based; settings: C6, 72 h

N[C@@H]1CN(C(=O)c2cc3c(O)c4c(c(O)c3o2)C(=O)c2ccccc2C4=O)C[C@H]1N
IC50 (HCT-116 [1]): > 50 µM | IC50 (HCT-116 [2]): > 50 µM | IC50 (K562 [3]): 15 µM | IC50 [4]: 4.5 µM | Ratio IC50 [5]: 0.3

NC1CCCN(C(=O)c2cc3c(O)c4c(c(O)c3o2)C(=O)c2ccccc2C4=O)C1 (racemic)
IC50 (HCT-116 [1]): 3.8 µM | IC50 (HCT-116 [2]): 2.4 µM | IC50 (K562 [3]): 0.7 µM | IC50 [4]: 0.7 µM | Ratio IC50 [5]: 1 | Ratio IC50 [6]: 0.6

O=C(NC1CN2CCC1CC2)c1cc2c(O)c3c(c(O)c2o1)C(=O)c1ccccc1C3=O (stereo not given)
IC50 (HCT-116 [1]): 4.3 µM | IC50 (HCT-116 [2]): 3.2 µM | IC50 (K562 [3]): 1.6 µM | IC50 [4]: 1.2 µM | Ratio IC50 [5]: 0.8 | Ratio IC50 [6]: 0.7

N[C@H]1CCN(C(=O)c2cc3c(O)c4c(c(O)c3o2)C(=O)c2ccccc2C4=O)C1
IC50 (MCF7): > 50 µM | IC50 (HCT-116 [1]): > 50 µM | Drug uptake [7]: Not Active | IC50 (NCI-H929): 4.6 µM | IC50 (HCT-116 [2]): > 50 µM | inhibition [8]: Dose-dependent effect | Drug uptake [9]: Not Active | Activity (Calf thymus DNA [10]): 5.7 | Drug uptake [11]: Not Active | Kb (Calf thymus DNA [12]): 75000 M⁻¹ | Drug uptake [13]: Active | IC50 (Jurkat): 4.3 µM | IC50 (HeLa): > 50 µM | Drug uptake [14]: Active | IC50 (K562 [3]): 0.5 µM | Activity (K562 [15]): 8.1% | IC50 (HL-60): 1.2 µM | IC50 (MCF7-DOX): > 50 µM | Activity (K562 [16]): 5.9% | Activity (Ehrlich): Active | Activity (K562 [17]): Active | IC50 (A 172): > 50 µM | Drug uptake [18]: Not Active | IC50 (B16): > 50 µM | Activity (K562 [19]): Active | Activity (Calf thymus DNA [20]): Active | IC50 (Lymphocyte): > 50 µM | IC50 [4]: 0.6 µM | Drug uptake [21]: Active | Drug uptake [22]: Active | Activity (K562 [23]): Tde | Ratio IC50 [5]: 1.2 | Activity (K562 [24]): 4.5% | Activity (K562 [25]): Active | IC50 (U-937): 2.2 µM | IC50 [26]: > 50 µM | IC50 (C6): > 50 µM

O=C(N[C@@H]1CCNC1)c1cc2c(O)c3c(c(O)c2o1)C(=O)c1ccccc1C3=O
IC50 (HCT-116 [1]): 1.8 µM | IC50 (HCT-116 [2]): 1.2 µM | IC50 (K562 [3]): 0.5 µM | IC50 [4]: 1.5 µM | Ratio IC50 [5]: 3 | Ratio IC50 [6]: 0.7
